Read-outs that look alike come from different tables or passages of the source.
How the values were obtained:
[1] = rats; cited from earlier work
[2] = PO, cited from earlier work
[3] = cited from earlier work
human GABABR1aR2a = target: T1, human GABABR1aR2a (Homo sapiens, UniProt O75899+Q9UBS5); assay: Intracellular Ca2+ mobilization assay in CHO-GABABR1aR2a-Gα16 cell (FLIPR); assay type: cell-based; details: for GABA shift Log [EC50(GABA + 10 μM cp)/EC50(GABA alone)]: GABA 0.0003-30 μM with and without 10 μM enhancer; for Emax: enhancer 0.001-30 μM in presence of 10 nM GABA (EC10), applied 15 min before GABA, read-out: Emax (%) at 10 nM GABA alone = 0% 10 μM GABA alone = 100%; for EC50: enhancer concentration-response in presence of 10 nM GABA (EC10)
T1 construct: expressed in transfected cells
T1 sequence (Q9UBS5 15-961 limits assumed): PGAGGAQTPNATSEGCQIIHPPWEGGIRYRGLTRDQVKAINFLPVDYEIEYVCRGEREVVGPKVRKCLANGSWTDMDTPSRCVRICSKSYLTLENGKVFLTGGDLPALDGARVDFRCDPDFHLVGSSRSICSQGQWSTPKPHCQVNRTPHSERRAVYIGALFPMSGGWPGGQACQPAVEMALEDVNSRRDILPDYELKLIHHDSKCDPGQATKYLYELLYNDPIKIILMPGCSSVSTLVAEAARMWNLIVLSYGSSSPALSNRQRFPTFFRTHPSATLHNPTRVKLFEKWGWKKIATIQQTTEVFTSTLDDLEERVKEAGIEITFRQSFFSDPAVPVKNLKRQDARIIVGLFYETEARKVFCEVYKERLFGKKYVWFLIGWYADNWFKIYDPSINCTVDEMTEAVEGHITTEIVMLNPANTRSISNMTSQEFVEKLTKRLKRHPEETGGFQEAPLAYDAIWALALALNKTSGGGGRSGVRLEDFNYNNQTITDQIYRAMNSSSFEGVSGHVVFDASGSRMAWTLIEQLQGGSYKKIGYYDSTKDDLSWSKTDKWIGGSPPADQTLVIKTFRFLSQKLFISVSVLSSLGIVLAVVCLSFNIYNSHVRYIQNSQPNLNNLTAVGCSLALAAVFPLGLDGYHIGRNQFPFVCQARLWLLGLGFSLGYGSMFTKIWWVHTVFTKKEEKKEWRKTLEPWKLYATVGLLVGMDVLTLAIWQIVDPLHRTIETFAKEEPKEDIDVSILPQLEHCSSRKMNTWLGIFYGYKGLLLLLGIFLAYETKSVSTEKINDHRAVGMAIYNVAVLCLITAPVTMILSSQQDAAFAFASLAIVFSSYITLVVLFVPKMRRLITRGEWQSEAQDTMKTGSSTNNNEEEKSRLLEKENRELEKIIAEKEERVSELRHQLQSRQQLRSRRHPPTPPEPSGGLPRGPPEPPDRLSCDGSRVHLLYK
T1 sequence (O75899 42-941): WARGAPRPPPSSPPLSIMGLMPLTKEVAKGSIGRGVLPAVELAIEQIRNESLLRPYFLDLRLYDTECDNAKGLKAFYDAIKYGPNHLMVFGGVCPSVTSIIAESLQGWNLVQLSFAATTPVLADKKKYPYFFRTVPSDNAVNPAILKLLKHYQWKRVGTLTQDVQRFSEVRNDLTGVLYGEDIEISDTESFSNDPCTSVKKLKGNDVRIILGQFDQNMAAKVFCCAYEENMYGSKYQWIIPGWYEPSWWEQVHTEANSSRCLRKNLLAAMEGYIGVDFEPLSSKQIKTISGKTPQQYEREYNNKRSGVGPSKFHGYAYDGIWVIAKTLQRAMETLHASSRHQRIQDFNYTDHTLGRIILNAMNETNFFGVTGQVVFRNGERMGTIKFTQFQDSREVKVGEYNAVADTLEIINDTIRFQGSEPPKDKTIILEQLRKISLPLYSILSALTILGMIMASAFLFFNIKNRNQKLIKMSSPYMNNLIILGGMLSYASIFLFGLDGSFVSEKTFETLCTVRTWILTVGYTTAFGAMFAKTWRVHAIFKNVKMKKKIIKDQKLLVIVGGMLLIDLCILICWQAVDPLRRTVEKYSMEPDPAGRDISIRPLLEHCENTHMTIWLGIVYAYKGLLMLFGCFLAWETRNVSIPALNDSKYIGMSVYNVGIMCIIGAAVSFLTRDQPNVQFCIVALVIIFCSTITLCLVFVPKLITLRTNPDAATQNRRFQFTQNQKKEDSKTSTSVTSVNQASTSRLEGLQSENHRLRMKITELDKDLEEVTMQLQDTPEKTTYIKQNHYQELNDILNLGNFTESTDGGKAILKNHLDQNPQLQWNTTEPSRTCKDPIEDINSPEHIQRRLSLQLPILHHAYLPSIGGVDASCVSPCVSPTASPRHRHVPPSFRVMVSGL
Procedure: Intracellular Ca^2+ Mobilization Assay
The Chinese Hamster Ovary (CHO) cells stably expressing human GABABR1aR2a and Gα16 were seeded at 5×10^4 cells/well in the poly-D-lysine treated, 96-well, black/clear-bottomed plates (BD Biosciences, Palo Alto, Calif.). 24 h later, the cells were loaded for 90 min at 37° C. with 4 μM Flou-4 acetoxymethyl ester (Catalog No. F-14202, Molecular Probes, Eugene, Oreg.) in loading buffer (1×HBSS, 20 mM HEPES, 2.5 mM Probenecid). Hanks' Balanced Salt Solution (HBSS) (10×) (catalog No. 14065-049) and HEPES (1M) (catalog No. 15630-056) were purchased from Invitrogen, Carlsbad, Calif. Probenecid (250 mM) (catalog No. P8761) was from Sigma, Buchs, Switzerland. The cells were washed five times with loading buffer to remove excess dye and intracellular calcium mobilization, [Ca^2+]i were measured using a Fluorometric Imaging Plate Reader (FLIPR, Molecular Devices, Menlo Park, Calif.) as described previously (Porter et al., Br. J. Pharmacol., 128, 13-20, 1999). The enhancers were applied 15 min before the application of the GABA. For GABA shift assay, concentration-response curves of GABA (0.0003-30 μM) were determined in the absence and presence of […] enhancer. The GABA-shift is defined as Log [EC50 (GABA+10 μM enhancer)/EC50 (GABA alone)]. The % maximum enhancing effect (% Emax) and potency (EC50 value) of each enhancer was determined from concentration-response curve of the enhancer (0.001-30 μM) in the presence of 10 nM GABA (EC10). Responses were measured as peak increase in fluorescence minus basal, normalized to the maximal stimulatory effect induced by 10 μM GABA alone (considered 100%) and 10 nM GABA alone (considered 0%). The data were fitted with the equation Y=100+(Max−100)/(1+(EC50/[drug])^n) where Max is the maximum effect, EC50 the concentration eliciting a half-maximum effect and n the Hill slope.

| Structure (SMILES) | GABA shift Log [EC50(GABA + 10 μM cp)/EC50(GABA alone)] (human GABABR1aR2a) | Emax (human GABABR1aR2a) | EC50 (human GABABR1aR2a) | other results |
| --- | --- | --- | --- | --- |
| CC(C)(CO)Cc1cc(C(C)(C)C)c(O)c(C(C)(C)C)c1 [CGP7930, 2,6-di-tert-butyl-4-(3-hydroxy-2,2-dimethyl-propyl)-phenol] |  |  |  | decreasing cocaine self-administration [1]: effective |
| CSc1nc(NC2CCCC2)c([N+](=O)[O-])c(NC2CCCC2)n1 [GS39783, N,N_-dicyclopentyl-2-methylsulfanyl-5-nitro-pyrimidine-4,6-diamine] |  |  |  | decreasing cocaine self-administration [1]: effective; effect on spontaneous locomotor activity, rotarod, body temperature and traction test ([2]; 0.1-200 mg/kg): had no effect; tolerance after chronic treatment ([3]; 21 days, 10 mg/kg, P.O., once daily): No tolerance; anxiolytic-like effects ([3]; elevated plus maze (rat), elevated zero maze (mice and rats), stress-induced hyperthermia (mice)): exhibited anxiolytic-like effects |
| Cc1nc2ccc(N3CCCCC3)cc2c(-c2ccc(F)cc2)c1C(=O)C(F)(F)F [Example 33, 2,2,2-Trifluoro-1-[4-(4-fluoro-phenyl)-2-methyl-6-piperidin-1-yl-quinolin-3-yl]-ethanone] | −0.90 | 62% | 0.33 µM |  |
| Cc1nc2cc3c(cc2c(-c2ccccc2)c1C(=O)C(F)(F)F)OC(F)(F)O3 [Example 19, 1-(2,2-Difluoro-6-methyl-8-phenyl-[1,3]dioxolo[4,5-g]quinolin-7-yl)-2,2,2-trifluoro-ethanone] | −0.70 | 63% | 0.9 µM |  |
| Cc1nc2ccc(Br)cc2c(-c2ccc(F)cc2)c1C(=O)C1CC1 [Example 56, [6-Bromo-4-(4-fluoro-phenyl)-2-methyl-quinolin-3-yl]-cyclopropyl-methanone] | −0.90 | 58% | 2.2 µM |  |
| NCC(CC(=O)O)c1ccc(Cl)cc1 (stereo not drawn) [Baclofen, β-chlorophenyl GABA] |  |  |  | effect on spontaneous locomotor activity, rotarod, body temperature and traction test ([2]; 2.5-15 mg/kg): showed these side effects |

More lines, main results first:

| GABA shift Log [EC50(GABA + 10 μM cp)/EC50(GABA alone)] (human GABABR1aR2a) | Emax (human GABABR1aR2a) | EC50 (human GABABR1aR2a) | Structure (SMILES) | other results |
| --- | --- | --- | --- | --- |
| −1.15 | 67% | 1.6 µM | CC(=O)c1c(C)nc2ccc(OC(F)(F)F)cc2c1-c1cccc(Cl)c1 [Example 15, 1-[4-(3-Chloro-phenyl)-2-methyl-6-trifluoromethoxy-quinolin-3-yl]-ethanone] |  |
| −1.00 | 65% | 0.8 µM | Cc1nc2ccc(OC(F)(F)F)cc2c(-c2ccccc2)c1C(=O)C(F)(F)F [Example 11, 2,2,2-Trifluoro-1-(2-methyl-4-phenyl-6-trifluoromethoxy-quinolin-3-yl)-ethanone] |  |
| −1.20 | 124% | 0.8 µM | Cc1nc2ccc(Br)cc2c(-c2ccccc2)c1C(=O)C(F)(F)F [Example 3, 1-(6-Bromo-2-methyl-4-phenyl-quinolin-3-yl)-2,2,2-trifluoro-ethanone] |  |

— patent US7576217B2, “Quinolines as allosteric enhancers of the GABAB receptors” (Hoffman-La Roche Inc., priority 2004, dated 2009)
